Data reported in patent publication US20070116781A1, “Hydrogen Cyanamide Pesticide Formulations” (priority 2005, published 2007).

Legend:
crabgrass = assay: Herbicidal activity, phosphate-free cyanamide and propionic acid, post-emergence, uncovered pots; format: in vivo, Digitaria sanguinalis
Source text: (§1) The procedures in this example differed from those of Example 2, however, by the use of hydrogen cyanamide crystals free of phosphate ion to prepare the aqueous hydrogen cyanamide solution, by the use of post-emergence application, and by the omission of any covering of the pots during any part of the test. Observations were made for total weed growth, and individual observations were also made for yellow nutsedge, crabgrass, sicklepod, and momingglory. Stock solutions of hydrogen cyanamide at 1.25% by weight and propionic acid at 5.0% by weight, both in water, were prepared as before, except that the hydrogen cyanamide solution, as noted above, was prepared by dissolving hydrogen cyanamide crystals in water in the absence of phosphate ion. […] The weeds were allowed to grow for three weeks before the treatment chemicals were applied. […] Data analyses were performed in the same manner as Examples 1 and 2. Table IX lists the results in weeds per pot for all weeds, Table X for yellow nutsedge, Table XI for crabgrass, Table XII for sicklepod, and Table XIII for morningglory, all both with propionic acid alone at various application […]

yellow nutsedge = assay: as above; format: in vivo, Cyperus esculentus
Source text: as §1

Hutcheson soybean = assay: Crop (soybean) conditions after soil treatment; format: in vivo; details: 57 d after treatment; for Number of Plants/Pot: 5 seeds/pot
Protocol: In this study, the soil was naturally infested with four species of nematodes, two of which were deleterious and two beneficial, and observations were made of both the nematode survival and the growth of the soybean plants. Stock solutions of hydrogen cyanamide at 1.0% by weight and propionic acid at 5.0% by weight, both in water, were prepared, the hydrogen cyanamide from a phosphate-buffered 50% aqueous solution. Planting pots measuring 10 cm in diameter, each containing 1 kg of soil, were used. […] The resulting plants were then removed from the pots, the root systems were washed, and the number of plants in each pot was determined. The weights of both fresh shoots and roots were also determined as well as the shoot height and the relative health of the root system, using a subjective index. Soil samples were also collected, and the soil and roots were incubated to determine nematode populations. Treatments were arranged in randomized complete block design with seven replications per treatment, and statistical evaluation of the data was performed with analyses of variance (ANOVA) and standard regression procedures. Fischer's Least Significant Difference at p 0.05 was calculated when appropriate. The results of these tests are listed as final test results in Tables II, III, and IV, with nematode populations in the soil listed in Table II, the nematode populations in the root systems in Table III, and the plant and root parameters of the soybean shoots in Table IV.

sicklepod = assay: Herbicidal activity, phosphate-free cyanamide and propionic acid, post-emergence, uncovered pots; format: in vivo, Senna obtusifolia
Source text: The procedures in this example differed from those of Example 2, however, by the use of hydrogen cyanamide crystals free of phosphate ion to prepare the aqueous hydrogen cyanamide solution, by the use of post-emergence application, and by the omission of any covering of the pots during any part of the test. Observations were made for total weed growth, and individual observations were also made for yellow nutsedge, crabgrass, sicklepod, and momingglory. Stock solutions of hydrogen cyanamide at 1.25% by weight and propionic acid at 5.0% by weight, both in water, were prepared as before, except that the hydrogen cyanamide solution, as noted above, was prepared by dissolving hydrogen cyanamide crystals in water in the absence of phosphate ion. […] The weeds were allowed to grow for three weeks before the treatment chemicals were applied. […] Data analyses were performed in the same manner as Examples 1 and 2. Table IX lists the results in weeds per pot for all weeds, Table X for yellow nutsedge, Table XI for crabgrass, Table XII for sicklepod, and Table XIII for morningglory, all both with propionic acid alone at various application rates and with […]

[1] = 6 d after treatment, cyanamide 150 mg/kg soil
[2] = 13 d after treatment, cyanamide 150 mg/kg soil
[3] = 20 d after treatment, cyanamide 150 mg/kg soil
[4] = hydrogen cyanamide 125 mg/kg of soil alone, all intervals
[5] = 6 d after treatment, C2H5CO2H 100 mg/kg soil
[6] = 6 d after treatment, C2H5CO2H 200 mg/kg soil
[7] = 6 d after treatment, C2H5CO2H 300 mg/kg soil
[8] = 6 d after treatment, C2H5CO2H 400 mg/kg soil
[9] = 6 d after treatment, C2H5CO2H 500 mg/kg soil
[10] = 13 d after treatment, C2H5CO2H 100 mg/kg soil
[11] = 13 d after treatment, C2H5CO2H 200 mg/kg soil
[12] = 13 d after treatment, C2H5CO2H 300 mg/kg soil
[13] = 13 d after treatment, C2H5CO2H 400 mg/kg soil
[14] = 13 d after treatment, C2H5CO2H 500 mg/kg soil
[15] = 20 d after treatment, C2H5CO2H 100 mg/kg soil
[16] = 20 d after treatment, C2H5CO2H 200 mg/kg soil
[17] = 20 d after treatment, C2H5CO2H 300 mg/kg soil
[18] = 20 d after treatment, C2H5CO2H 400 mg/kg soil
[19] = 20 d after treatment, C2H5CO2H 500 mg/kg soil

## N#CN [Cyanamide, hydrogen cyanamide]
crabgrass; [1]
  Weeds Per Pot: Crabgrass: 0
crabgrass; [2]
  Weeds Per Pot: Crabgrass: 0.4
crabgrass; [3]
  Weeds Per Pot: Crabgrass: 0.3
crabgrass; [4]
  Crabgrass weeds per pot: about one or fewer crabgrass weeds per pot
Yellow nutsedge; [1]
  Weeds Per Pot: Yellow Nutsedge: 2.4
Yellow nutsedge; [2]
  Weeds Per Pot: Yellow Nutsedge: 4.6
Yellow nutsedge; [3]
  Weeds Per Pot: Yellow Nutsedge: 6
Yellow nutsedge; [4]
  Yellow nutsedge weeds per pot: about six or fewer yellow nutsedge weeds per pot
Hutcheson soybean; cyanamide 20 mg/kg soil
  Number of Plants/Pot: 4
  Fresh Shoot Weight: 21.7 g
  Root Condition Index: 1.6
  Shoot Height: 26.4 cm
Hutcheson soybean; cyanamide 40 mg/kg soil
  Number of Plants/Pot: 3.9
  Fresh Shoot Weight: 20.5 g
  Root Condition Index: 1.4
  Shoot Height: 26.5 cm
Hutcheson soybean; cyanamide 60 mg/kg soil
  Number of Plants/Pot: 4.7
  Fresh Shoot Weight: 25.5 g
  Root Condition Index: 1.1
  Shoot Height: 27 cm
Hutcheson soybean; cyanamide 80 mg/kg soil
  Number of Plants/Pot: 4.4
  Fresh Shoot Weight: 24.95 g
  Root Condition Index: 1.1
  Shoot Height: 27.1 cm
Hutcheson soybean; cyanamide 120 mg/kg soil
  Number of Plants/Pot: 4.9
  Fresh Shoot Weight: 29.4 g
  Root Condition Index: 1.3
  Shoot Height: 28.7 cm
sicklepod; [1]
  Weeds Per Pot: Sicklepod: 0.6
sicklepod; [2]
  Weeds Per Pot: Sicklepod: 1.4
sicklepod; [3]
  Weeds Per Pot: Sicklepod: 1
sicklepod; [4]
  Sicklepod weeds per pot: about one or fewer sicklepod weeds per pot

## CCC(=O)O [C2H5CO2H, propionic acid]
crabgrass; [5]
  Weeds Per Pot: Crabgrass: 9.9
crabgrass; [6]
  Weeds Per Pot: Crabgrass: 5.1
crabgrass; [7]
  Weeds Per Pot: Crabgrass: 3
crabgrass; [8]
  Weeds Per Pot: Crabgrass: 0.6
crabgrass; [9]
  Weeds Per Pot: Crabgrass: 0.6
crabgrass; [10]
  Weeds Per Pot: Crabgrass: 10.6
crabgrass; [11]
  Weeds Per Pot: Crabgrass: 5.4
crabgrass; [12]
  Weeds Per Pot: Crabgrass: 3.9
crabgrass; [13]
  Weeds Per Pot: Crabgrass: 1.3
crabgrass; [14]
  Weeds Per Pot: Crabgrass: 0.7
crabgrass; [15]
  Weeds Per Pot: Crabgrass: 11.6
crabgrass; [16]
  Weeds Per Pot: Crabgrass: 6
crabgrass; [17]
  Weeds Per Pot: Crabgrass: 3.4
crabgrass; [18]
  Weeds Per Pot: Crabgrass: 1.3
crabgrass; [19]
  Weeds Per Pot: Crabgrass: 1.6
Yellow nutsedge; [5]
  Weeds Per Pot: Yellow Nutsedge: 2.4
Yellow nutsedge; [6]
  Weeds Per Pot: Yellow Nutsedge: 4
Yellow nutsedge; [7]
  Weeds Per Pot: Yellow Nutsedge: 1.9
Yellow nutsedge; [8]
  Weeds Per Pot: Yellow Nutsedge: 3
Yellow nutsedge; [9]
  Weeds Per Pot: Yellow Nutsedge: 2.1
Yellow nutsedge; [10]
  Weeds Per Pot: Yellow Nutsedge: 3
Yellow nutsedge; [11]
  Weeds Per Pot: Yellow Nutsedge: 4.9
Yellow nutsedge; [12]
  Weeds Per Pot: Yellow Nutsedge: 3.3
Yellow nutsedge; [13]
  Weeds Per Pot: Yellow Nutsedge: 4.7
Yellow nutsedge; [14]
  Weeds Per Pot: Yellow Nutsedge: 3.9
Yellow nutsedge; [15]
  Weeds Per Pot: Yellow Nutsedge: 3.1
Yellow nutsedge; [16]
  Weeds Per Pot: Yellow Nutsedge: 5.4
Yellow nutsedge; [17]
  Weeds Per Pot: Yellow Nutsedge: 4.7
Yellow nutsedge; [18]
  Weeds Per Pot: Yellow Nutsedge: 5.3
Yellow nutsedge; [19]
  Weeds Per Pot: Yellow Nutsedge: 4.1
Hutcheson soybean; C2H5CO2H 250 mg/kg soil
  Number of Plants/Pot: 3.7
  Fresh Shoot Weight: 19.6 g
  Root Condition Index: 2.1
  Shoot Height: 26.9 cm
sicklepod; [5]
  Weeds Per Pot: Sicklepod: 3.1
sicklepod; [6]
  Weeds Per Pot: Sicklepod: 1.3
sicklepod; [7]
  Weeds Per Pot: Sicklepod: 0.9
sicklepod; [8]
  Weeds Per Pot: Sicklepod: 0.4
sicklepod; [9]
  Weeds Per Pot: Sicklepod: 0.7
sicklepod; [10]
  Weeds Per Pot: Sicklepod: 3.6
sicklepod; [11]
  Weeds Per Pot: Sicklepod: 2.4
sicklepod; [12]
  Weeds Per Pot: Sicklepod: 1.4
sicklepod; [13]
  Weeds Per Pot: Sicklepod: 1.6
sicklepod; [14]
  Weeds Per Pot: Sicklepod: 2
sicklepod; [15]
  Weeds Per Pot: Sicklepod: 3.1
sicklepod; [16]
  Weeds Per Pot: Sicklepod: 2.3
sicklepod; [17]
  Weeds Per Pot: Sicklepod: 1.9
sicklepod; [18]
  Weeds Per Pot: Sicklepod: 1.9
sicklepod; [19]
  Weeds Per Pot: Sicklepod: 2.1
